Where “and” joins values, the source holds several entries; their conditions need not be identical. Identical values can stand only once.

For one assay, the system named is WM-115 cells. The experiment in a line: MTT cytotoxicity assay, WM-115. Format: cell-based, human. Conditions: Homo sapiens, WM-115, 48 h, MTT, 46 h + 2 h incubation. The procedure: The first stage of the study used the MTT viability test to determine the cytotoxicity of ten compounds, i.e., 3-arylidenechromanone, 3-arylideneflavanone, spirochromanone and spiro- flavanone analogues, against four human cancer cell lines: HL-60, NALM-6, WM-115 and COLO-205.
Cytotoxicity was tested against human skin melanoma cells (WM-115, ECACC, Salisbury, UK), two human leukemia cell lines, viz. promyelocytic leukemia (HL-60) and lymphoblastic leukemia (NALM-6), and human colon adenocarcinoma cells (COLO-205). The cell lines COLO-205, WM-115 and HL-60 used in this work came from the ATCC American Type Culture Collection (Manassas, VA, USA), whereas the NALM-6 cell line was purchased from the German Collection of Microorganisms and Cell Cultures (Braunschweig, Germany). The leukaemia cells and colon adenocarcinoma were cultured in RPMI 1640 medium (Invitrogen, Grand Island, NY, USA) supplemented with 10% fetal bovine serum (FBS; Invitrogen) and gentamicin (25 µg/mL; KRKA, Novo Mesto, Slovenia). For melanoma WM-115 cells, Dulbecco’s minimal essential medium (DMEM; Invitrogen) was used. All cell lines were cultured at 37 °C in a humidified atmosphere of 5% CO2 in air.
For all experiments, the studied compounds were dissolved in DMSO (Sigma-Aldrich) and were further diluted in culture medium to obtain <0.1% DMSO concentration. In each experiment, controls with and without 0.1% DMSO were performed. The cytotoxicity of all compounds and of the reference compounds 4-chromanone and 3-benzylideneflavanone was determined by the MTT assay, i.e., 3-(4,5-dimethylthiazol-2-yl)-2,5-diphenyltetrazolium bromide (Sigma, St. Louis, MO, USA), which measures cellular dehydrogenase activity. Exponentially growing cells were seeded a day before the experiment onto a 96-well microplates (Nunc, Roskilde, Denmark) at a density up to 6–8 × 10^3 cells/well (depending on the cell line). Subsequently, various concentrations of the studied compounds freshly prepared in DMSO and diluted with complete culture medium were added. All compounds were tested for their cytotoxicity at a final concentration of 10^−7–10^−3 M. After 46 h of incubation with the studied compounds, the cells were treated with the MTT reagent and incubation was continued for another two hours. MTT – formazan crystals were dissolved in 20% sodium dodecyl sulphate (SDS, Sigma-Aldrich) and 50% DMF (Sigma-Aldrich) at pH 4.7; following this, absorbance was read at 570 nm on a multifunctional Victor ELISA-plate reader (Perkin Elmer, Turku, Finland). The IC50 values, i.e., the concentration of the test compound required to reduce the cell survival fraction to 50% of controls, were calculated from concentration-response curves and used as a measure of the sensitivity of the cells to a given treatment. As a control, cultured cells were grown in the absence of drugs. The data points represent the means of at least five to ten repeats ± standard deviation (S.D.).

A further assay concerns HL-60 cells. The experiment in a line: Cell cycle analysis by flow cytometry (propidium iodide). The settings on record: for cell cycle, G1, mean / cell cycle, G2/M, mean / cell cycle, S, mean: mean of n=2; for cell cycle distribution, G1 / cell cycle distribution, G2 / cell cycle distribution, G2/M: HL-60, 20 h, mean ± SD, n = 2. It is filed as cell-based, human. The procedure: The next stage examined the effects of the selected compounds on cell cycle progression in HL-60 leukemia cells. […] One million HL-60 (subline CCL 240; cell type: promyeloblast) cells in 3 mL of RPMI 1640 supplemented with 20% FBS were seeded on 6-well plate. […] Fixed cells were stored in −20 °C for 2–3 days. Before analysis, cells were centrifuged (10 min, 1500 rpm, 4 °C) and washed twice with cold PBS. After the second wash, the cells were suspended in 1mL of PBS containing 100 μg of RNase A and incubated in 37 °C for 10 min. Next, 5 μL of solution of propidium iodide (1 mg/mL) was added to each sample and incubated in dark for 30 min at RT. Stained cells were analyzed by flow cytometry (FACS Calibur, BD Biosciences, San Jose, CA, USA). Data from 10,000 gated cells were collected using CellQuestPro software (Ver 6.0, Becton Dickinson) and cell cycle analysis was performed with ModFit LT software (Ver 3.2, Verity Software House, Topsham, ME, USA).

The mark [1] stands for this setting: Figure S3, HL-60, 0.5 × IC50 (µM: quercetin 29, 1 1.5, 7 18, 10 4.7, 11 4.5, 12 6).
Setting [2] is: Figure S3, HL-60, 0.5 × IC50, each of two repetitions.
[3] abbreviates: Figure S3, HL-60, 1 × IC50 (µM: quercetin 58, 1 3, 7 35, 10 9.4, 11 9, 12 12).
[4] abbreviates: Figure S3, HL-60, 1 × IC50, each of two repetitions.
Where [5] appears, read: 0.5 × IC50 (µM: quercetin 29, 2 1.5, 7 18, 12 6, 11 4.5, 10 4.7).
Setting [6] is: 1 × IC50 (µM: quercetin 58, 2 3, 7 35, 12 12, 11 9, 10 9.4).

As to `O=C1/C(=C/c2ccccc2)COc2ccccc21` [Compound 7, (E)-3-benzylidene-chroman-4-one], in the assay with WM-115 cells, the half-inhibitory concentration (IC50) was 12.8 ± 1.83 µM. Moreover, in the assay with HL-60 cells (setting [1]), the “cell cycle, G1, mean” value is reported as 57,71%; the “cell cycle, G2/M, mean” value is 20,82%; the “cell cycle, S, mean” value is given as 21,48%. Besides, in the assay with HL-60 cells (setting [2]), the “cell cycle, G1, single repetitions” value was 52,64% and 62,77%; the “cell cycle, G2/M, single repetitions” value is 18,44% and 23,20%; the “cell cycle, S, single repetitions” value was 18,79% and 24,16%. Moreover, the “cell cycle, G1, mean” value in the assay on HL-60 cells (Figure S3, HL-60, 1 × IC50 (µM in parenthesis: quercetin 58, 1 3, 7 35, 10 9.4, 11 9, 12 12)) was 50,37%. Besides, in the assay on HL-60 cells (setting [3]), the “cell cycle, G2/M, mean” value was 26,09% and the “cell cycle, S, mean” value was 23,55%. Moreover, in the assay with HL-60 cells (setting [4]), the “cell cycle, G1, single repetitions” value was 51,06% and 49,68%; the “cell cycle, G2/M, single repetitions” value was 26,04% and 26,13%; the “cell cycle, S, single repetitions” value was 22,89% and 24,20%. Moreover, in the assay on HL-60 cells (setting [5]), the “cell cycle distribution, G1” value was 57.7 ± 7.2%; the “cell cycle distribution, G2” value was determined as 21.5 ± 3.8%; the “cell cycle distribution, G2/M” value is on record as 20.8 ± 3.4%. Moreover, in the assay with HL-60 cells (setting [6]), the “cell cycle distribution, G1” value amounted to 50.4 ± 1.0%; the “cell cycle distribution, G2” value was 23.5 ± 0.9%; the “cell cycle distribution, G2/M” value is 26.1 ± 0.1%. Also, the “cells arrested in G2/M phase” value with HL-60 cells (HL-60, concentrations of IC50 and 0.5 × IC50) is recorded as 20–26%.

(Values after paper PMC7180617, “Biological Evaluation of 3-Benzylidenechromanones and Their Spiropyrazolines-Based Analogues” (Molecules, 2020).)
